Experimental findings from US20130096156A1 (priority 2010, published 2013) are described below.

Where two headings read alike, the source gives them in different places.

Series [1] relates to Blumeria graminis f. sp. tritici (Erysiphe graminis f. sp. tritici). The series can be described thus: Blumeria graminis f. sp. tritici / wheat / leaf disc preventative (powdery mildew on wheat). As to conditions: foliar, wheat leaf segments cv. Kanzler, inoculated 1 day after application, assessed 6-8 days after application, read-out: inhibit fungal infestation (percent disease control compared to untreated). Type of series: in vivo. The procedure:
(§1) Leaf disks of various plant species (diameter 14 mm) are cut from plants grown in the greenhouse. The cut leaf disks are placed in multiwell plates (24-well format) onto water agar. Immediately after cutting the leaf disks are sprayed with a test solution.
(§2) Compounds to be tested are prepared as DMSO solutions (max. 10 mg/ml). Just before spraying the solutions are diluted to the appropriate concentrations with 0.025% Tween20. After drying, the leaf disks are inoculated with a spore suspension of the appropriate pathogenic fungus.
(§3) After an incubation time of 3-7 days after inoculation at defined conditions (temp, rH, light, etc.) according to the respective test system, the activity of the test compound is assessed as antifungal activity.
Wheat leaf segments cv. Kanzler are placed on agar in a multiwell plate (24-well format) and sprayed with the formulated test compound diluted in water. The leaf disks are inoculated by shaking powdery mildew infected plants above the test plates 1 day after application. The inoculated leaf disks are incubated at 20° C. and 60% rh under a light regime of 24 h darkness followed by 12 h light/12 h darkness in a climate chamber and the activity of a compound is assessed as percent disease control compared to untreated when an appropriate level of disease damage appears on untreated check leaf segments (6-8 days after application).

A further series has as its system Pythium ultimum. The series is described as follows: Pythium ultimum / liquid culture (seedling damping off). The series is classed as cell-based. As to conditions: Globisporangium ultimum, liquid culture in PDB, 24° C., 2-3 days after application, read-out: inhibit fungal infestation (inhibition of growth determined photometrically). The procedure:
Mycelia fragments or conidia suspensions of a fungus, prepared either freshly from liquid cultures of the fungus or from cryogenic storage, are directly mixed into nutrient broth. DMSO solutions of the test compound (max. 10 mg/ml) is diluted with 0.025% Tween20 by factor 50 and 10 μl of this solution is pipetted into a microtiter plate (96-well format) and the nutrient broth containing the fungal spores/mycelia fragments is then added to give an end concentration of the tested compound. The test plates are incubated at 24° C. and 96% rH in the dark. The inhibition of fungal growth is determined photometrically after 2-6 days and antifungal activity is calculated.
Mycelia fragments and oospores of a newly grown liquid culture of the fungus are directly mixed into nutrient broth (PDB potato dextrose broth). After placing a (DMSO) solution of test compound into a microtiter plate (96-well format), the nutrient broth containing the fungal mycelia/spore mixture is added. The test plates are incubated at 24° C. and the inhibition of growth is determined photometrically 2-3 days after application.

The next series concerns Phytophthora infestans. The series can be described thus: whole plant or invertebrate. To be noted: in Solanum lycopersicum, foliar, read-out: inhibit fungal infestation (percent disease control compared to untreated). Type of series: in vivo.
For another series, the system named is Plasmopara viticola. The series is described as follows: Plasmopara viticola / grape / leaf disc preventative. The series is classed as in vivo. To be noted: foliar, grape vine leaf disks, inoculated 1 day after application, assessed 6-8 days after application, read-out: inhibit fungal infestation (percent disease control compared to untreated). The procedure:
as §1, §2, §3
Grape vine leaf disks are placed on water agar in multiwell plates (24-well format) and sprayed with the formulated test compound diluted in water. The leaf disks are inoculated with a spore suspension of the fungus 1 day after application. The inoculated leaf disks are incubated at 19° C. and 80% rh under a light regime of 12 h light/12 h darkness in a climate cabinet and the activity of a compound is assessed as percent disease control compared to untreated when an appropriate level of disease damage appears in untreated check leaf disks (6-8 days after application).

On to `COCC(C)(C#N)NC(=O)C(Oc1cc(C)c2ncc(C)cc2c1)SC` (centres unmarked) [Compound 11, N-(1-Cyano-2-methoxy-1-methyl-ethyl)-2-(3,8-dimethyl-quinolin-6-yloxy)-2-methylsulfanyl-acetamide], for which the melting point was in the range of 115 to 117 °C. In series [1], the inhibition at 200 ppm is ≥ 80%. The inhibition at 200 ppm with Pythium ultimum was ≥ 80%.

In the case of `CCC(C)(C)NC(=O)C(Oc1ccc2ncc(C)cc2c1)SC` (centres unmarked) [Compound 5, N-(1,1-Dimethyl-propyl)-2-(3-methyl-quinolin-6-yloxy)-2-methylsulfanyl-acetamide], the melting point is 103 to 104 °C. Further, in the series with Pythium ultimum, the inhibition at 200 ppm is ≥ 80%. The inhibition at 200 ppm in the series with Phytophthora infestans is ≥ 80%.

In the case of `CCc1cnc2c(Cl)cc(OC(SC)C(=O)NC(C)(C)C#CCOC)cc2c1` (centres unmarked) [Compound 27, 2-(8-Chloro-3-ethyl-quinolin-6-yloxy)-N-(4-methoxy-1,1-dimethyl-but-2-ynyl)-2-methylsulfanyl-acetamide], the melting point is 139 to 142 °C. Also, the inhibition at 200 ppm in series [1] is ≥ 80%. In addition, in the series with Plasmopara viticola, the inhibition at 200 ppm was ≥ 80%. Besides, the inhibition at 200 ppm with Phytophthora infestans was ≥ 80%.

Regarding `C=Cc1cnc2c(Cl)cc(OC(OC)C(=O)NC(C)C)cc2c1` (centres unmarked) [Compound 40, 2-(8-Chloro-3-vinyl-quinolin-6-yloxy)-N-iso-propyl-2-methoxy-acetamide], the melting point fell in the range of 108 to 112 °C. Also, the inhibition at 200 ppm in series [1] was ≥ 80%.

In the case of `CCc1cnc2c(C)cc(OC(SC)C(=O)NC3(C)CCC3)cc2c1` (centres unmarked) [Compound 22, 2-(3-Ethyl-8-methyl-quinolin-6-yloxy)-N-(1-methyl-cyclobutyl)-2-methylsulfanyl-acetamide], the melting point was in the range of 150 to 151 °C. For the same compound, the inhibition at 200 ppm with Pythium ultimum is ≥ 80%. The inhibition at 200 ppm in the series on Plasmopara viticola is ≥ 80%. The inhibition at 200 ppm in the series on Phytophthora infestans is ≥ 80%.

`C=Cc1cnc2c(Cl)cc(OC(CC)C(=O)NC(C)(C)C)cc2c1` (centres unmarked) came in with a melting point of 100 to 102 °C.

Regarding `COCC#CC(C)(C)NC(=O)C(Oc1ccc2ncc(C)cc2c1)SC` (centres unmarked) [Compound 4, N-(4-Methoxy-1,1-dimethyl-but-2-ynyl)-2-(3-methyl-quinolin-6-yloxy)-2-methylsulfanyl-acetamide], the melting point was in the range of 100 to 102 °C. For the same compound, the inhibition at 200 ppm in series [1] is ≥ 80%. The inhibition at 200 ppm in the series with Pythium ultimum is ≥ 80%. In the series on Phytophthora infestans, the inhibition at 200 ppm was ≥ 80%.

The compound `C=Cc1cnc2ccc(OC(CC)C(=O)NC(C)(C#N)COC)cc2c1` (centres unmarked) [Compound 39, N-(1-Cyano-2-methoxy-1-methyl-ethyl)-2-(3-vinyl-quinolin-6-yloxy)-butyramide] came in with a melting point of 120 to 125 °C. The inhibition at 200 ppm in series [1] was ≥ 80%. The inhibition at 200 ppm in the series with Pythium ultimum was ≥ 80%.

For the compound `CCc1cnc2c(C)cc(OC(SC)C(=O)NC3CCC3)cc2c1` (centres unmarked) [Compound 21, N-Cyclobutyl-2-(3-ethyl-8-methyl-quinolin-6-yloxy)-2-methylsulfanyl-acetamide], the melting point was 157 to 158 °C. For the same compound, the inhibition at 200 ppm in the series with Pythium ultimum is ≥ 80%. In addition, in the series on Plasmopara viticola, the inhibition at 200 ppm was ≥ 80%. For the same compound, the inhibition at 200 ppm in the series on Phytophthora infestans was ≥ 80%.

`CCc1cnc2ccc(OC(CC)C(=O)NC(C)(C)C#CCOC)cc2c1` (centres unmarked) [Compound 29, 2-(3-Ethyl-quinolin-6-yloxy)-N-(4-methoxy-1,1-dimethyl-but-2-ynyl)-butyramide]: the melting point fell in the range of 99 to 101 °C. Also, in series [1], the inhibition at 200 ppm was ≥ 80%. Moreover, in the series with Pythium ultimum, the inhibition at 200 ppm is ≥ 80%. Besides, in the series on Phytophthora infestans, the inhibition at 200 ppm was ≥ 80%.

As to `CC#CC(C)(C)NC(=O)C(Oc1cc(C)c2ncc(CC)cc2c1)SC` (centres unmarked) [Compound 19, N-(1,1-Dimethyl-but-2-ynyl)-2-(3-ethyl-8-methyl-quinolin-6-yloxy)-2-methylsulfanyl-acetamide], the melting point fell in the range of 166 to 167 °C. For the same compound, in the series with Pythium ultimum, the inhibition at 200 ppm was ≥ 80%. In the series with Plasmopara viticola, the inhibition at 200 ppm was ≥ 80%. For the same compound, in the series with Phytophthora infestans, the inhibition at 200 ppm is ≥ 80%.

As to `CCc1cnc2c(Cl)cc(OC(SC)C(=O)NC3CCC3)cc2c1` (centres unmarked), the melting point lay within 154 to 156 °C.

`C=Cc1cnc2c(F)cc(OC(SC)C(=O)NC(C)CC)cc2c1` (centres unmarked) [Compound 38, N-sec-Butyl-2-(8-fluoro-3-vinyl-quinolin-6-yloxy)-2-methylsulfanyl-acetamide] gave a melting point of 110 to 112 °C. Moreover, the inhibition at 200 ppm in series [1] was ≥ 80%. In the series with Pythium ultimum, the inhibition at 200 ppm was ≥ 80%.

Turning to `CCc1cnc2c(Cl)cc(OC(SC)C(=O)NC3(C)CCC3)cc2c1` (centres unmarked) [Compound 28, 2-(8-Chloro-3-ethyl-quinolin-6-yloxy)-N-(1-methyl-cyclobutyl)-2-methylsulfanyl-acetamide], the melting point fell in the range of 148 to 150 °C. Besides, in series [1], the inhibition at 200 ppm was ≥ 80%. In the series with Pythium ultimum, the inhibition at 200 ppm is ≥ 80%. In addition, in the series with Plasmopara viticola, the inhibition at 200 ppm is ≥ 80%.

`CC#CC(C)(C)NC(=O)C(Oc1cc(Cl)c2ncc(CC)cc2c1)SC` (centres unmarked) showed a melting point of 186 to 188 °C.

In the case of `C=Cc1cnc2c(Cl)cc(OC(SC)C(=O)NC(C)(C)C#N)cc2c1` (centres unmarked), the melting point fell in the range of 138 to 141 °C.

Turning to `CCc1cnc2ccc(OC(CC)C(=O)NC3(C)CCC3)cc2c1` (centres unmarked) [Compound 30, 2-(3-Ethyl-quinolin-6-yloxy)-N-(1-methyl-cyclobutyl)-butyramide], the melting point lay in the range of 110 to 112 °C. Besides, the inhibition at 200 ppm in series [1] is ≥ 80%. Further, the inhibition at 200 ppm in the series on Pythium ultimum is ≥ 80%. In the series with Phytophthora infestans, the inhibition at 200 ppm was ≥ 80%.

Turning to `CCc1cnc2c(C)cc(OC(SC)C(=O)NC(C)(C)C#CCOC)cc2c1` (centres unmarked) [Compound 20, 2-(3-Ethyl-8-methyl-quinolin-6-yloxy)-N-(4-methoxy-1,1-dimethyl-but-2-ynyl)-2-methylsulfanyl-acetamide], the melting point lay in the range of 137 to 138 °C. In addition, in the series on Pythium ultimum, the inhibition at 200 ppm is ≥ 80%. Moreover, the inhibition at 200 ppm with Plasmopara viticola is ≥ 80%. Also, the inhibition at 200 ppm with Phytophthora infestans was ≥ 80%.

As for `CCc1cnc2ccc(OC(CC)C(=O)NC(C)(C#N)COC)cc2c1` (centres unmarked) [Compound 32, N-(1-Cyano-2-methoxy-1-methyl-ethyl)-2-(3-ethyl-quinolin-6-yloxy)-butyramide], the melting point is 114 to 117 °C. Besides, the inhibition at 200 ppm in series [1] is ≥ 80%.

For `CCc1cnc2ccc(OC(CC)C(=O)NC(C)(C)/C=N/OC)cc2c1` (centres unmarked) [Compound 31], the melting point is 125 to 127 °C. In series [1] (in Triticum aestivum), the inhibition at 200 ppm is ≥ 80%. The inhibition at 200 ppm in the series on Pythium ultimum is ≥ 80%. Further, the inhibition at 200 ppm in the series with Phytophthora infestans was ≥ 80%.

As to `CSC(Oc1ccc2ncc(C)cc2c1)C(=O)NC(C)(C)C` (centres unmarked) [Compound 1, N-tert-Butyl-2-(3-methyl-quinolin-6-yloxy)-2-methylsulfanyl-acetamide], the melting point fell in the range of 126 to 127 °C. For the same compound, the inhibition at 200 ppm in series [1] was ≥ 80%. Moreover, in the series with Pythium ultimum, the inhibition at 200 ppm is ≥ 80%. For the same compound, the inhibition at 200 ppm in the series with Phytophthora infestans is ≥ 80%.

`CCc1cnc2c(C)cc(OC(SC)C(=O)NC(C)(C)C)cc2c1` (centres unmarked) [Compound 17, N-tert-Butyl-2-(3-ethyl-8-methyl-quinolin-6-yloxy)-2-methylsulfanyl-acetamide] returned a melting point of 153 to 154 °C. The inhibition at 200 ppm in the series on Pythium ultimum was ≥ 80%. In addition, the inhibition at 200 ppm in the series on Plasmopara viticola is ≥ 80%. Also, the inhibition at 200 ppm in the series on Phytophthora infestans was ≥ 80%.
